Experiments:
[1] = anaerostipes sp., 12 h, 2 µM
Description: The drug is tested on Anaerostipes sp. strain: fecal isolate for biotransformation. The drug concentrations were measured before and after a 12-h incubation by liquid-chromatography-coupled mass spectrometry (LC–MS)

[2] = bacteroides fragilis, 12 h, 2 µM
Description: The drug is tested on Bacteroides fragilis strain: DS-208 for biotransformation. The drug concentrations were measured before and after a 12-h incubation by liquid-chromatography-coupled mass spectrometry (LC–MS)

[3] = The drug is tested on Clostridium asparagiforme strain: DSM15981 for biotransformation. The drug concentrations were measured before and after a 12-h incubation by liquid-chromatography-coupled mass spectrometry (LC–MS); assay type: ADME; parameters: dose 2 uM, timepoint 0 vs 12 hours; settings: enterocloster asparagiformis, 2 µM
[4] = roseburia intestinalis, 12 h, 2 µM
Description: The drug is tested on Roseburia intestinalis strain: L1-82 for biotransformation. The drug concentrations were measured before and after a 12-h incubation by liquid-chromatography-coupled mass spectrometry (LC–MS)

[5] = The drug is tested on Clostridium symbiosum strain: ATCC14940 for biotransformation. The drug concentrations were measured before and after a 12-h incubation by liquid-chromatography-coupled mass spectrometry (LC–MS); settings: 2 µM
[6] = The drug is tested on Bacteroides uniformis strain: ATCC8492 for biotransformation. The drug concentrations were measured before and after a 12-h incubation by liquid-chromatography-coupled mass spectrometry (LC–MS); settings: 2 µM
[7] = bacteroides eggerthii, 12 h, 2 µM
Description: The drug is tested on Bacteroides eggerthii strain: DSM20697 for biotransformation. The drug concentrations were measured before and after a 12-h incubation by liquid-chromatography-coupled mass spectrometry (LC–MS)

[8] = The drug is tested on Alistipes indistinctus strain: DSM22520 for biotransformation. The drug concentrations were measured before and after a 12-h incubation by liquid-chromatography-coupled mass spectrometry (LC–MS); settings: 2 µM
[9] = akkermansia muciniphila, 12 h, 2 µM
Description: The drug is tested on Akkermansia muciniphila strain: ATCC BAA-835 for biotransformation. The drug concentrations were measured before and after a 12-h incubation by liquid-chromatography-coupled mass spectrometry (LC–MS)

[10] = The drug is tested on Bacteroides pectinophilus strain: ATCC43243 for biotransformation. The drug concentrations were measured before and after a 12-h incubation by liquid-chromatography-coupled mass spectrometry (LC–MS); settings: 2 µM
[11] = The drug is tested on Eggerthella lenta strain: ATCC25559 for biotransformation. The drug concentrations were measured before and after a 12-h incubation by liquid-chromatography-coupled mass spectrometry (LC–MS); settings: 2 µM
[12] = bacteroides intestinalis, 12 h, 2 µM
Description: The drug is tested on Bacteroides intestinalis strain: DSM17393 for biotransformation. The drug concentrations were measured before and after a 12-h incubation by liquid-chromatography-coupled mass spectrometry (LC–MS)

[13] = segatella copri, 12 h, 2 µM
Description: The drug is tested on Prevotella copri strain: DSM18205 for biotransformation. The drug concentrations were measured before and after a 12-h incubation by liquid-chromatography-coupled mass spectrometry (LC–MS)

[14] = The drug is tested on Bacteroides vulgatus strain: ATCC8482 for biotransformation. The drug concentrations were measured before and after a 12-h incubation by liquid-chromatography-coupled mass spectrometry (LC–MS); settings: phocaeicola vulgatus, 2 µM
[15] = bacteroides thetaiotaomicron, 12 h, 2 µM
Description: The drug is tested on Bacteroides thetaiotaomicron strain: 7330 for biotransformation. The drug concentrations were measured before and after a 12-h incubation by liquid-chromatography-coupled mass spectrometry (LC–MS)

[16] = The drug is tested on Bifidobacterium ruminantium strain: fecal isolate for biotransformation. The drug concentrations were measured before and after a 12-h incubation by liquid-chromatography-coupled mass spectrometry (LC–MS); settings: 2 µM
[17] = The drug is tested on Ruminococcus lactaris strain: ATCC29176 for biotransformation. The drug concentrations were measured before and after a 12-h incubation by liquid-chromatography-coupled mass spectrometry (LC–MS); settings: 2 µM
[18] = bacteroides fragilis, 12 h, 2 µM; remark: listed apart in the source
Description: The drug is tested on Bacteroides fragilis strain: 3397 (T10) for biotransformation. The drug concentrations were measured before and after a 12-h incubation by liquid-chromatography-coupled mass spectrometry (LC–MS)

[19] = bacteroides thetaiotaomicron, 12 h, 2 µM; remark: listed apart in the source
Description: The drug is tested on Bacteroides thetaiotaomicron strain: VPI-5482 for biotransformation. The drug concentrations were measured before and after a 12-h incubation by liquid-chromatography-coupled mass spectrometry (LC–MS)

[20] = The drug is tested on Bacteroides dorei strain: DSM17855 for biotransformation. The drug concentrations were measured before and after a 12-h incubation by liquid-chromatography-coupled mass spectrometry (LC–MS); settings: phocaeicola dorei, 2 µM

Row | SMILES | Bacterial Biotransformation [1] | Bacterial Biotransformation [2] | Bacterial Biotransformation [3] | Bacterial Biotransformation [4] | Bacterial Biotransformation [5] | Bacterial Biotransformation [6] | Bacterial Biotransformation [7] | Bacterial Biotransformation [8] | Bacterial Biotransformation [9] | Bacterial Biotransformation [10] | Bacterial Biotransformation [11] | Bacterial Biotransformation [12] | Bacterial Biotransformation [13] | Bacterial Biotransformation [14] | Bacterial Biotransformation [15] | Bacterial Biotransformation [16] | Bacterial Biotransformation [17] | Bacterial Biotransformation [18] | Bacterial Biotransformation [19] | Bacterial Biotransformation [20]
1 | CCc1oc2ccccc2c1C(=O)c1cc(Br)c(O)c(Br)c1 [BENZBROMARONE] | Compound NOT metabolized | Compound NOT metabolized | Compound NOT metabolized | Compound NOT metabolized | Compound NOT metabolized | Compound NOT metabolized | Compound NOT metabolized | Compound NOT metabolized | Compound NOT metabolized | Compound NOT metabolized | Compound NOT metabolized | Compound NOT metabolized | Compound NOT metabolized | Compound NOT metabolized | Compound NOT metabolized | Compound NOT metabolized | Compound NOT metabolized | Compound NOT metabolized | Compound NOT metabolized | –
2 | CC(NC(C)(C)C)C(=O)c1cccc(Cl)c1 (stereo not drawn) [BUPROPION] | Compound NOT metabolized | Compound NOT metabolized | Compound NOT metabolized | – | – | Compound NOT metabolized | Compound metabolized | Compound NOT metabolized | Compound NOT metabolized | – | Compound NOT metabolized | – | Compound NOT metabolized | Compound NOT metabolized | Compound NOT metabolized | Compound metabolized | Compound NOT metabolized | Compound NOT metabolized | Compound NOT metabolized | Compound NOT metabolized
3 | CN1C(=O)CCS(=O)(=O)C1c1ccc(Cl)cc1 (stereo not drawn) [CHLORMEZANONE] | Compound NOT metabolized | Compound NOT metabolized | Compound metabolized | – | Compound NOT metabolized | Compound NOT metabolized | Compound NOT metabolized | Compound metabolized | Compound NOT metabolized | Compound NOT metabolized | Compound NOT metabolized | Compound NOT metabolized | Compound NOT metabolized | Compound metabolized | – | Compound metabolized | – | Compound NOT metabolized | Compound NOT metabolized | –
4 | Br.CN(C)CCCC1(c2ccc(F)cc2)OCc2cc(C#N)ccc21 (stereo not drawn) [CITALOPRAM HYDROBROMIDE] | Compound NOT metabolized | Compound NOT metabolized | Compound NOT metabolized | Compound NOT metabolized | Compound NOT metabolized | – | Compound NOT metabolized | Compound NOT metabolized | Compound NOT metabolized | Compound NOT metabolized | Compound NOT metabolized | Compound NOT metabolized | Compound NOT metabolized | Compound NOT metabolized | Compound NOT metabolized | Compound NOT metabolized | Compound NOT metabolized | Compound NOT metabolized | Compound NOT metabolized | –
5 | CC[C@H](C)C(=O)O[C@H]1C[C@@H](C)C=C2C=C[C@H](C)[C@H](CC[C@@H]3C[C@@H](O)CC(=O)O3)[C@H]21 [LOVASTATIN] | Compound NOT metabolized | – | Compound metabolized | Compound NOT metabolized | Compound NOT metabolized | Compound metabolized | Compound NOT metabolized | Compound NOT metabolized | Compound NOT metabolized | – | Compound NOT metabolized | Compound metabolized | Compound NOT metabolized | Compound metabolized | Compound metabolized | Compound NOT metabolized | Compound NOT metabolized | Compound metabolized | Compound NOT metabolized | Compound metabolized
6 | Nc1ccc(/N=N/c2ccccc2)c(N)n1 [PHENAZOPYRIDINE] | Compound metabolized | Compound metabolized | Compound metabolized | Compound metabolized | Compound metabolized | Compound metabolized | Compound metabolized | Compound metabolized | – | Compound NOT metabolized | Compound metabolized | Compound metabolized | Compound metabolized | Compound metabolized | Compound metabolized | Compound metabolized | Compound metabolized | Compound metabolized | Compound metabolized | Compound metabolized
7 | CCOc1cc(CC(=O)N[C@@H](CC(C)C)c2ccccc2N2CCCCC2)ccc1C(=O)O [REPAGLINIDE] | Compound NOT metabolized | – | Compound metabolized | Compound NOT metabolized | Compound metabolized | Compound metabolized | Compound metabolized | Compound NOT metabolized | Compound NOT metabolized | Compound NOT metabolized | Compound NOT metabolized | Compound metabolized | Compound NOT metabolized | Compound NOT metabolized | Compound metabolized | Compound NOT metabolized | Compound NOT metabolized | – | – | Compound metabolized

— ChEMBL document CHEMBL5303573, “Mapping human microbiome drug metabolism by gut bacteria and their genes” (Nature, 2019)
